Like-named read-outs stand apart in the source and are kept apart here.
Assays:
HOP-62 = assay: SRB 48 h growth assay, Non-small Cell Lung HOP-62; format: cell-based, human; conditions: HOP-62, Non-small Cell Lung
CCRF-CEM = assay: SRB 48 h growth assay, Leukemia CCRF-CEM; format: cell-based, human; conditions: for CC50 / GI50: Homo sapiens; for CC50: CCKF-CEM, read-out: Log10 LC50 (converted)
[1] = test system: six breast cancer cell line (MCF-7, MDA-MB-231/ATCC, HS 578T, TD-47D, MDA-MB-468 and BT-549); assay: in vitro anticancer activity, breast panel; format: cell-based; conditions: Homo sapiens; six breast cancer cell lines, exposure at least 48 h; read-out: GI50, range over panel
RXF393 = assay: SRB 48 h growth assay, Renal RXF393; format: cell-based, human; conditions: for GI50 / CC50: Homo sapiens; for CC50: RXF 393, read-out: Log10 LC50 (converted)
[2] = test system: seven colon cancer cell line (COLO 205, HCC-2998, HCT-116, HCT-15, HT29, KM12 and SW-620); assay: in vitro anticancer activity, colon panel; format: cell-based; conditions: Homo sapiens; seven colon cancer cell lines, exposure at least 48 h; read-out: GI50, range over panel
NCI-H23 = assay: SRB 48 h growth assay, Non-small Cell Lung NCI-H23; format: cell-based, human
[3] = test system: two prostate cancer cell line (PC-3, DU-145); assay: in vitro anticancer activity, prostate panel; format: cell-based; conditions: Homo sapiens; two prostate cancer cell lines, exposure at least 48 h; read-out: GI50, range over panel
DU-145 = assay: SRB 48 h growth assay, Prostate DU-145; format: cell-based, human; conditions: DU-145, Prostate; for CC50 / GI50: Homo sapiens; for CC50: read-out: Log10 LC50 (converted)
A549/ATCC = assay: SRB 48 h growth assay, Non-small Cell Lung A549/ATCC; format: cell-based, human; conditions: for CC50 / GI50: Homo sapiens; for CC50: read-out: Log10 LC50 (converted)
MCF7 = assay: SRB 48 h growth assay, Breast MCF7; format: cell-based, human; conditions: for GI50 / CC50: Homo sapiens; for CC50: read-out: Log10 LC50 (converted)
TK-10 = assay: SRB 48 h growth assay, Renal TK-10; format: cell-based, human; conditions: TK-10, Renal; for CC50 / GI50: Homo sapiens; for CC50: read-out: Log10 LC50 (converted)
PC-3 = assay: SRB 48 h growth assay, Prostate PC-3; format: cell-based, human; conditions: PC-3, Prostate; for GI50 / CC50: Homo sapiens; for CC50: read-out: Log10 LC50 (converted)
MDA-MB-231/ATCC = assay: SRB 48 h growth assay, Breast MDA-MB-231/ATCC; format: cell-based, human; conditions: for CC50 / GI50: Homo sapiens; for CC50: read-out: Log10 LC50 (converted)
M14 = assay: SRB 48 h growth assay, Melanoma M14; format: cell-based, human
786-0 = assay: SRB 48 h growth assay, Renal 786-0; format: cell-based, human; conditions: 786-0, Renal
[4] = test system: seven ovarian cancer cell lines (IGROV1, OVCAR-3, OVCAR-4, OVCAR-5, OVCAR-8, NCI/ADR-RES and SK-OV-3); assay: in vitro anticancer activity, ovarian panel; format: cell-based; conditions: Homo sapiens, exposure at least 48 h, read-out: GI50, range over panel
OVCAR-4 = assay: SRB 48 h growth assay, Ovarian OVCAR-4; format: cell-based, human; conditions: OVCAR-4, Ovarian
ACHN = assay: SRB 48 h growth assay, Renal ACHN; format: cell-based, human
NCI-H522 = assay: SRB 48 h growth assay, Non-small Cell Lung NCI-H522; format: cell-based, human
BT-549 = assay: SRB 48 h growth assay, Breast BT-549; format: cell-based, human; conditions: BT-549, Breast
RPMI-8226 = assay: SRB 48 h growth assay, Leukemia RPMI-8226; format: cell-based, human; conditions: RPMI-8226, Leukemia; for GI50 / CC50: Homo sapiens; for CC50: read-out: Log10 LC50 (converted)
HS578T = assay: SRB 48 h growth assay, Breast HS578T; format: cell-based, human; conditions: for GI50 / CC50: Homo sapiens, Hs-578T; for CC50: read-out: Log10 LC50 (converted)
[5] = test system: six CNS cancer cell line (SF-268, SF-295, SF-539, SNB-19, SNB-75 and U251); assay: in vitro anticancer activity, CNS panel; format: cell-based; conditions: Homo sapiens; six CNS cancer cell lines, exposure at least 48 h; read-out: GI50, range over panel
MDA-MB-435 = assay: SRB 48 h growth assay, Melanoma MDA-MB-435; format: cell-based, human; conditions: MDA-MB-435, Melanoma; for GI50 / CC50: Homo sapiens; for CC50: read-out: Log10 LC50 (converted)
K-562 = assay: SRB 48 h growth assay, Leukemia K-562; format: cell-based, human; conditions: for GI50 / CC50: Homo sapiens, K562, K-562, Leukemia; for CC50: read-out: Log10 LC50 (converted); for Log10 TGI50: K-562, Leukemia
UACC-62 = assay: SRB 48 h growth assay, Melanoma UACC-62; format: cell-based, human; conditions: UACC-62, Melanoma
[6] = Homo sapiens, read-out: Growth Inhibition GI50
[7] = Homo sapiens, read-out: Log10 GI50 (converted)
[8] = read-out: Growth Inhibition GI50
[9] = read-out: Log10 GI50 (converted)
[10] = RXF 393, read-out: Growth Inhibition GI50
[11] = RXF 393, read-out: Log10 GI50 (converted)
[12] = Homo sapiens, read-out: Log10 LC50 (converted)

C#Cc1ccc(-n2c(/C=C/c3ccc(Cl)c(F)c3)nc3ncccc3c2=O)cc1 [4g, (E)-2-(4-chloro-3-fluorostyryl)-3-(4-ethynylphenyl)pyrido[2,3-d]pyrimidin-4(3H)-one]
GI50 (HOP-62; [6]): 0.58 µM | GI50 (HOP-62; [7]): 0.589 µM | CC50 (CCRF-CEM): > 100 µM | GI50 (CCRF-CEM; [8]): 0.29 µM | GI50 (CCRF-CEM; [9]): 0.288 µM | GI50 [1]: 0.24 to 0.41 µM | GI50 (RXF393; [10]): 0.28 µM | GI50 (RXF393; [11]): 0.282 µM | CC50 (RXF393): > 100 µM | GI50 [2]: 0.33 to 0.37 µM | LC50 (NCI-H23; [12]): > 100 µM | GI50 [3]: 0.34 µM | CC50 (DU-145): > 100 µM | CC50 (A549/ATCC): > 100 µM | GI50 (MCF7; [8]): 0.32 µM | GI50 (MCF7; [9]): 0.324 µM | CC50 (MCF7): > 100 µM | CC50 (TK-10): > 100 µM | GI50 (PC-3; [8]): 0.34 µM | GI50 (PC-3; [9]): 0.347 µM | CC50 (PC-3): > 100 µM | CC50 (MDA-MB-231/ATCC): > 100 µM | GI50 (M14; [6]): 0.3 µM | GI50 (M14; [7]): 0.302 µM | GI50 (786-0; [6]): 0.36 µM | GI50 (786-0; [7]): 0.372 µM | GI50 [4]: 0.3 to 0.48 µM | GI50 (OVCAR-4; [6]): 0.48 µM | GI50 (OVCAR-4; [7]): 0.479 µM | GI50 (ACHN; [6]): 0.39 µM | GI50 (ACHN; [7]): 0.398 µM | GI50 (NCI-H522; [6]): 0.27 µM | GI50 (NCI-H522; [7]): 0.275 µM | GI50 (BT-549; [6]): 0.32 µM | GI50 (BT-549; [7]): 0.324 µM | GI50 (RPMI-8226; [8]): 0.25 µM | GI50 (RPMI-8226; [9]): 0.257 µM | CC50 (RPMI-8226): > 100 µM | Log10 TGI50 (HS578T): >−4.00 | GI50 (HS578T; [8]): 0.41 µM | GI50 (HS578T; [9]): 0.417 µM | CC50 (HS578T): > 100 µM | GI50 [5]: 0.34 µM | GI50 (MDA-MB-435; [8]): 0.19 µM | GI50 (MDA-MB-435; [9]): 0.195 µM | CC50 (MDA-MB-435): > 100 µM | GI50 (K-562; [8]): 0.33 µM | GI50 (K-562; [9]): 0.339 µM | CC50 (K-562): > 100 µM | Log10 TGI50 (K-562): >−4.00 | GI50 (UACC-62; [6]): 0.48 µM | GI50 (UACC-62; [7]): 0.49 µM

C#Cc1ccc(-n2c(/C=C/c3cc(OC)c(OC)c(OC)c3)nc3ncccc3c2=O)cc1 [4q, (E)-3-(4-Ethynylphenyl)-2-(3,4,5-trimethoxystyryl)pyrido[2,3-d]pyrimidin-4(3H)-one]
Log10 TGI50 (HOP-62): >−4.00 | GI50 (HOP-62; [6]): 13.3 µM | GI50 (HOP-62; [7]): 13.2 µM | CC50 (HOP-62; [12]): > 100 µM | Log10 TGI50 (CCRF-CEM): >−4.00 | CC50 (CCRF-CEM): > 100 µM | GI50 (CCRF-CEM; [8]): 4.9 µM | GI50 (CCRF-CEM; [9]): 4.9 µM | GI50 [1]: 1.51 to 3.46 µM | Log10 TGI50 (RXF393): >−4.00 | GI50 (RXF393; [10]): 7.04 µM | GI50 (RXF393; [11]): 7.08 µM | CC50 (RXF393): > 100 µM | GI50 [2]: 1.64 to 2.23 µM | Log10 TGI50 (NCI-H23): >−4.00 | GI50 (NCI-H23; [6]): 17.3 µM | GI50 (NCI-H23; [7]): 17.4 µM | GI50 [3]: 1.96 to 3.76 µM | Log10 TGI50 (DU-145): >−4.00 | GI50 (DU-145; [8]): 5.36 µM | GI50 (DU-145; [9]): 5.37 µM | CC50 (DU-145): > 100 µM | Log10 TGI50 (A549/ATCC): >−4.00 | GI50 (A549/ATCC; [8]): 5.65 µM | GI50 (A549/ATCC; [9]): 5.62 µM | CC50 (A549/ATCC): > 100 µM | Log10 TGI50 (MCF7): >−4.00 | GI50 (MCF7; [8]): 3.17 µM | GI50 (MCF7; [9]): 3.16 µM | CC50 (MCF7): > 100 µM | GI50 (TK-10; [8]): 17.3 µM | GI50 (TK-10; [9]): 17.4 µM | CC50 (TK-10): > 100 µM | Log10 TGI50 (TK-10): −4.20 | GI50 (PC-3; [8]): 3.96 µM | GI50 (PC-3; [9]): 3.98 µM | CC50 (PC-3): > 100 µM | Log10 TGI50 (PC-3): >−4.00 | Log10 TGI50 (MDA-MB-231/ATCC): >−4.00 | GI50 (MDA-MB-231/ATCC; [8]): 5.53 µM | GI50 (MDA-MB-231/ATCC; [9]): 5.5 µM | CC50 (MDA-MB-231/ATCC): > 100 µM | Log10 TGI50 (M14): ->−4.00 | GI50 (M14; [6]): 4.93 µM | GI50 (M14; [7]): 4.9 µM | CC50 (M14; [12]): > 100 µM | Log10 TGI50 (786-0): >−4.00 | GI50 (786-0; [6]): 5.31 µM | GI50 (786-0; [7]): 5.25 µM | CC50 (786-0; [12]): > 100 µM | GI50 [4]: 1.67 to 3.61 µM | GI50 (OVCAR-4; [6]): 12 µM | GI50 (OVCAR-4; [7]): 12 µM | CC50 (OVCAR-4; [12]): > 100 µM | Log10 TGI50 (OVCAR-4): −4.04 | Log10 TGI50 (ACHN): >−4.00 | GI50 (ACHN; [6]): 6.63 µM | GI50 (ACHN; [7]): 6.61 µM | CC50 (ACHN; [12]): > 100 µM | Log10 TGI50 (NCI-H522): −5.20 | GI50 (NCI-H522; [6]): 2.33 µM | GI50 (NCI-H522; [7]): 2.34 µM | CC50 (NCI-H522; [12]): 66.1 µM | Log10 TGI50 (BT-549): −5.00 | GI50 (BT-549; [6]): 2.99 µM | GI50 (BT-549; [7]): 3.02 µM | CC50 (BT-549; [12]): > 100 µM | GI50 (RPMI-8226; [8]): 3.6 µM | GI50 (RPMI-8226; [9]): 3.63 µM | CC50 (RPMI-8226): > 100 µM | Log10 TGI50 (RPMI-8226): >−4.00 | Log10 TGI50 (HS578T): −4.64 | GI50 (HS578T; [8]): 3.67 µM | GI50 (HS578T; [9]): 3.63 µM | CC50 (HS578T): > 100 µM | GI50 [5]: 1.67 to 2.27 µM | GI50 (MDA-MB-435; [8]): 1.98 µM | GI50 (MDA-MB-435; [9]): 2 µM | CC50 (MDA-MB-435): 97.7 µM | Log10 TGI50 (MDA-MB-435): −5.27 | GI50 (K-562; [8]): 3.83 µM | GI50 (K-562; [9]): 3.8 µM | CC50 (K-562): > 100 µM | Log10 TGI50 (K-562): >−4.00 | GI50 (UACC-62; [6]): 6.9 µM | GI50 (UACC-62; [7]): 6.92 µM | CC50 (UACC-62; [12]): > 100 µM | Log10 TGI50 (UACC-62): >−4.00
